Target: Albumin (Bos taurus, UniProt P02769)
Experiment: Binding affinity to bovine serum albumin by fluorescence anisotropy based method
Type: ADME

Chain of Albumin (P02769 whole entry): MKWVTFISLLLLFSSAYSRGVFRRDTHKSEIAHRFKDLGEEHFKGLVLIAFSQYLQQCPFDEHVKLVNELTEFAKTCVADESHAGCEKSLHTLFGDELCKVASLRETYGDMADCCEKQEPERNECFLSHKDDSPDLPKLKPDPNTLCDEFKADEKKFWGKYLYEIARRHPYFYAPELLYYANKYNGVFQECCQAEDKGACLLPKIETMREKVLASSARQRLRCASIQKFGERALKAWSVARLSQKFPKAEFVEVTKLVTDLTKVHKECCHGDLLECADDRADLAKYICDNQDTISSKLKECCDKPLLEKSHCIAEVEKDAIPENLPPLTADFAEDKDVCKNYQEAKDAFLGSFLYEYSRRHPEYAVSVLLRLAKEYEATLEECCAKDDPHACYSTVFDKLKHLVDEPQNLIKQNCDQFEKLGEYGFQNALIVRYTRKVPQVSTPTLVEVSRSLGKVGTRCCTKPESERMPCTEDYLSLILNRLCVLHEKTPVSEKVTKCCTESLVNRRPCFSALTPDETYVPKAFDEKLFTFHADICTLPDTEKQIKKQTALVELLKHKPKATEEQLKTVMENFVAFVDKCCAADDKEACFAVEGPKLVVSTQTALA

| Compound | Kd [nM] |
| --- | --- |
| CCN1c2cc(S(=O)(=O)O)ccc2\C(=C/C=C/C=C/C2=[N+](CC)c3ccc(S(=O)(=O)[O-])cc3C2(C)C)C1(C)CCCC(=O)NCCCC[C@H](NC(=O)CCCCCCCCOc1nc2cc(C(=O)O)ccc2c2cnccc12)C(=O)N[C@@H](CC(=O)O)C(=O)N[C@@H](CC(=O)O)C(=O)N[C@@H](CC(=O)O)C(=O)N[C@@H](CC(=O)O)C(=O)O (some centres not stated) | > 50000 |
| CCN1c2cc(S(=O)(=O)O)ccc2\C(=C/C=C/C=C/C2=[N+](CC)c3ccc(S(=O)(=O)[O-])cc3C2(C)C)C1(C)CCCC(=O)NCCCC[C@H](NC(=O)[C@H](CC(=O)O)NC(=O)[C@H](CC(=O)O)NC(=O)[C@H](CC(=O)O)NC(=O)[C@H](CC(=O)O)NC(=O)[C@H](CC(=O)O)NC(=O)[C@H](CC(=O)O)NC(=O)CCCCCCCn1cnc2c(Br)c(Br)c(Br)c(Br)c21)C(=O)O (some centres not stated) | 1700 |
